Experimental data published in US9957264B2 (Merck Sharp & Dohme Corp., priority 2013, dated 2018).

molecular target: JAK1 (recombinant purified GST-tagged catalytic domain) (Homo sapiens (Human), UniProt P23458); experiment: Jak Biochemical HTRF Assay (JAK1); details: [ATP] 31.8 μM
Experimental: Jak Biochemical HTRF Assay Protocol
The ability of compounds to inhibit the activity of JAK1, JAK2, JAK3, and Tyk2 was measured using a recombinant purified GST-tagged catalytic domain for each enzyme (Invitrogen JAK1 #M4290, JAK2 #M4290, JAK3 #M4290, Tyk2 #M4290) in an HTRF format biochemical assay. The reactions employed a common peptide substrate, LCB-[…]-NH2 (in-house). The basic assay protocol is as follows: First, 250 nL of diluted compounds in DMSO were dispensed into the wells of a dry 384-well Black plate (Greiner #781076) using a Labcyte Echo 555 acoustic dispenser. Subsequent reagent additions employed an Agilent Bravo. […] After equilibration, 2 μL of 10×ATP in 1× assay buffer was added to initiate the kinase reaction and the plates were shaken and then incubated at room temperature for 120 minutes. At the end of the incubation, 20 μL of 2× stop buffer (streptavidin-Dylight 650 (Thermo #84547B/100 mL), Eu-tagged pY20 antibody (Perkin Elmer #AD0067), EDTA, HEPES, and Triton) was added to quench the reaction. Plates were shaken and centrifuged and then incubated 60 minutes at room temperature and then read on a Perkin Elmer Envision (λex=337 nm, λem=665 and 615 nm, TRF delay time=20 μs). HTRF signal=10,000*665 nm reading/615 nm reading. After normalization to untreated controls, the percent inhibition of the HTRF signal at each compound concentration was calculated. The plot of percent inhibition versus the log of compound concentration was fit with a 4-parameter dose response equation to calculate IC50 values.
Final reaction conditions were:
Examples of the instant invention were evaluated in JAK1 and JAK2 in vitro binding assays as described above. The following table tabulates the JAK1 IC50 values and JAK2 IC50 values disclosed for the instant invention.

Sequence of JAK1 (recombinant purified GST-tagged catalytic domain) (P23458 875-1153): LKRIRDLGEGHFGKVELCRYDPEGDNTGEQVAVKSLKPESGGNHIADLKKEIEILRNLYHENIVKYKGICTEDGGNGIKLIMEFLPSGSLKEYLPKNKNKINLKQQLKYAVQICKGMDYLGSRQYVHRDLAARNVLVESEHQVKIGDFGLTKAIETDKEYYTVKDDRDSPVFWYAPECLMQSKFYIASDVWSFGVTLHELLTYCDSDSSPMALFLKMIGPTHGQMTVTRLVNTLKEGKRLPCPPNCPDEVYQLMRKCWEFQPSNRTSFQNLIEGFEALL

Compound	IC50
CC(C)(C)OC(=O)[C@@H]1CC[C@@](CC#N)(n2nc(Nc3ccc4c(c3)CN(C(C)(C)C)S4(=O)=O)c3c(=O)[nH]ccc32)CO1 [Example 5-41, (2S,5S)-tert-butyl 5-(3-((2-(tert-butyl)-1,1-dioxido-2,3-dihydrobenzo [d]isothiazol-5-yl)amino)-4-oxo-4,5-dihydro-1H-pyrazolo[4,3-c]pyridin-1-yl)-5-(cyanomethyl) tetrahydro-2H-pyran-2-carboxylate]	0.09 nM
CC(C)(C)OC(=O)[C@H]1CC[C@](CC#N)(n2nc(Nc3ccc4c(c3)CN(C(C)(C)C)S4(=O)=O)c3c(=O)[nH]ccc32)CO1 [Example 5-42, (2R,5R)-tert-butyl 5-(3-((2-(tert-butyl)-1,1-dioxido-2,3-dihydrobenzo[d]isothiazol-5-yl)amino)-4-oxo-4,5-dihydro-1H-pyrazolo[4,3-c]pyridin-1-yl)-5-(cyanomethyl)tetrahydro-2H-pyran-2-carboxylate]	1.6 nM
CN(C)S(=O)(=O)c1ccc(Nc2nn(C3(CC#N)CCCCC3)c3cc[nH]c(=O)c23)cc1 [Example 5-79, 4-(1-(1-(cyanomethyl)cyclohexyl)-4-oxo-4,5-dihydro-1H-pyrazolo[4,3-c]pyridin-3-ylamino)-N,N-dimethylbenzene-sulfonamide]	0.78 nM
CN(C)S(=O)(=O)c1ccc(Nc2nn([C@@]3(CC#N)CCCC[C@H]3F)c3cc[nH]c(=O)c23)cc1 [Example 5-84]	< 0.02 nM
CC(C)(C)OC(=O)[C@@H]1CC[C@@](CC#N)(n2nc(Nc3ccc(Cn4ccnn4)cc3)c3c(=O)[nH]ccc32)CO1 [Example 5-96, (2S,5S)-tert-butyl 5-(3-((4-((1H-1,2,3-triazol-1-yl)methyl)phenyl)amino)-4-oxo-4,5-dihydro-1H-pyrazolo[4,3-c]pyridin-1-yl)-5-(cyanomethyl) tetrahydro-2H-pyran-2-carboxylate]	0.07 nM
CC(C)(C)N1Cc2cc(Nc3nn(C4(CC#N)CCCC4)c4cc[nH]c(=O)c34)ccc2S1(=O)=O [Example 5-121, 2-(1-(3-((2-(tert-butyl)-1,1-dioxido-2,3-dihydrobenzo[d]isothiazol-5-yl)amino)-4-oxo-4,5-dihydro-1H-pyrazolo[4,3-c]pyridin-1-yl)cyclopentyl)acetonitrile]	0.04 nM
CC1(C)OC(=O)c2ccc(Nc3nn(C4(CC#N)CCCC4)c4cc[nH]c(=O)c34)cc21 [Example 5-126, (1-{3-[(3,3-dimethyl-1-oxo-1,3-dihydro-2-benzofuran-5-yl)amino]-4-oxo-4,5-dihydro-1H-pyrazolo[4,3-c]pyridin-1-yl}cyclopentyl)acetonitrile]	4.53 nM
CC(C)NS(=O)(=O)c1ccc(Nc2nn(C3(CC#N)CCCC3)c3cc[nH]c(=O)c23)cc1 [Example 5-130, 4-((1-(1-(cyanomethyl)cyclopentyl)-4-oxo-4,5-dihydro-1H-pyrazolo[4,3-c]pyridin-3-yl)amino)-N-isopropylbenzene-sulfonamide]	0.5 nM
CCOC(=O)C(C)(C)N(C)S(=O)(=O)c1ccc(Nc2nn(C3(CC#N)CCCC3)c3cc[nH]c(=O)c23)cc1 [Example 5-139, ethyl 2-(4-((1-(1-(cyanomethyl)cyclopentyl)-4-oxo-4,5-dihydro-1H-pyrazolo[4,3-c]pyridin-3-yl)amino)-N-methylphenylsulfonamido)-2-methylpropanoate]	0.76 nM
CC(C)(C)N1Cc2cc(Nc3nn([C@]4(CC#N)CCCOC4)c4cc[nH]c(=O)c34)ccc2S1(=O)=O [Example 5-178, [(3S)-3-{3-[(2-tert-butyl-1,1-dioxido-2,3-dihydro-1,2-benzisothiazol-5-yl)amino]-4-oxo-4,5-dihydro-1H-pyrazolo[4,3-c]pyridin-1-yl}tetrahydro-2H-pyran-3-yl] acetonitrile]	0.04 nM
CC(C)(C)OC(=O)[C@@H]1CC[C@@](CC#N)(n2nc(Nc3ccc4nc(N5CCOCC5)ccc4c3)c3c(=O)[nH]ccc32)CO1 [Example 5-227, (2S,5S)-tert-butyl 5-(cyanomethyl)-5-(3-((2-morpholinoquinolin-6-yl)amino)-4-oxo-4,5-dihydro-1H-pyrazolo[4,3-c]pyridin-1-yl)tetrahydro-2H-pyran-2-carboxylate]	0.15 nM
CN(C)S(=O)(=O)c1ccc(Nc2nn([C@@]3(CC#N)CCCC[C@H]3F)c3cc[nH]c(=O)c23)cc1 [Example 5-234, 4-({1-[(1R,2R)-1-(cyanomethyl)-2-fluorocyclohexyl]-4-oxo-4,5-dihydro-1H-pyrazolo [4,3-c]pyridin-3-yl}amino)-N,N-dimethyl-benzenesulfonamide]	0.63 nM
CC(C)NS(=O)(=O)c1ccc(Nc2nn(C3(CC#N)CCN(C(=O)OC(C)(C)C)CC3)c3cc[nH]c(=O)c23)cc1 [Example 5-288, tert-butyl 4-(cyanomethyl)-4-(3-((4-(N-isopropylsulfamoyl)phenyl)amino)-4-oxo-4,5-dihydro-1H-pyrazolo[4,3-c]pyridin-1-yl)piperidine-1-carboxylate]	0.15 nM
Cc1ccc(CN2CCC(CC#N)(n3nc(Nc4ccc(S(=O)(=O)N(C)C)cc4)c4c(=O)[nH]ccc43)CC2)cc1 [Example 8-2, 4-({1-[4-(cyanomethyl)-1-(4-methylbenzyl)piperidin-4-yl]-4-oxo-4,5-dihydro-1H-pyrazolo[4,3-c]pyridin-3-yl}amino)-N,N-dimethylbenzenesulfonamide]	0.44 nM
CN(C)S(=O)(=O)c1ccc(Nc2nn(C3(CC#N)CCN(Cc4ccc(C#N)cc4)CC3)c3cc[nH]c(=O)c23)cc1 [Example 8-5]	0.2 nM
CN(C)S(=O)(=O)c1ccc(Nc2nn(C3(CC#N)CCN(Cc4cccc5[nH]ccc45)CC3)c3cc[nH]c(=O)c23)cc1 [Example 8-16, 4-({1-[4-(cyanomethyl)-1-(1H-indol-4-ylmethyl)piperidin-4-yl]-4-oxo-4,5-dihydro-1H-pyrazolo[4,3-c]pyridin-3-yl}amino)-N,N-dimethylbenzenesulfonamide]	1.54 nM
CCC(=O)N1CCC(CC#N)(n2nc(Nc3ccc(S(=O)(=O)N(C)C)cc3)c3c(=O)[nH]ccc32)CC1 [Example 9-1, 4-({1-[4-(cyanomethyl)-1-propanoylpiperidin-4-yl]-4-oxo-4,5-dihydro-1H-pyrazolo[4,3-c]pyridin-3-yl}amino)-N,N-dimethylbenzenesulfonamide]	0.11 nM
CN(C)S(=O)(=O)c1ccc(Nc2nn(C3(CC#N)CCN(C(=O)Cc4ccc(C(F)(F)F)cc4)CC3)c3cc[nH]c(=O)c23)cc1 [Example 9-16, 4-({1-[4-(cyanomethyl)-1-{[4-(trifluoromethyl)phenyl]acetyl}piperidin-4-yl]-4-oxo-4,5-dihydro-1H-pyrazolo[4,3-c]pyridin-3-yl}amino)-N,N-dimethylbenzenesulfonamide]	1.05 nM
CN(C)S(=O)(=O)c1ccc(Nc2nn(C3(CC#N)CCN(C(=O)OC4CCOCC4)CC3)c3cc[nH]c(=O)c23)cc1 [Example 11-7, tetrahydro-2H-pyran-4-yl 4-(cyanomethyl)-4-(3-((4-(N,N-dimethylsulfamoyl)phenyl)amino)-4-oxo-4,5-dihydro-1H-pyrazolo[4,3-c]pyridin-1-yl)piperidine-1-carboxylate]	0.18 nM
CC(OC(=O)N1CCC(CC#N)(n2nc(Nc3ccc(S(=O)(=O)N(C)C)cc3)c3c(=O)[nH]ccc32)CC1)C(F)(F)F (centres unmarked) [Example 11-8, 1,1,1-trifluoropropan-2-yl 4-(cyanomethyl)-4-(3-((4-(N,N-dimethylsulfamoyl)phenyl)amino)-4-oxo-4,5-dihydro-1H-pyrazolo[4,3-c]pyridin-1-yl)piperidine-1-carboxylate]	0.18 nM
